Assay results: patent US12077503B2, “Substituted cyclic amides and their use as herbicides” (FMC CORPORATION, priority 2015, dated 2024)

Columns and labels:
Assay type in all cases: in vivo
[1] = test system: barnyardgrass (Echinochloa crus-galli); assay: Test A postemergence; details: Echinochloa crus-galli, post-emergence, 240 h, read-out: Barnyardgrass plant response rating (0 to 100 scale); for pest or weed control at 125 g/ha: 125 g ai/ha, postemergence, visual injury vs untreated controls after approx. 10 d, 0 = no effect, 100 = complete control; for pest or weed control at 31 g/ha: Postemergence, 31 g ai/ha, 0 is no effect, 100 is complete control
In short: (§1)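 Visual injury scores from 0, no effect, to 100, complete control, were assigned versus untreated controls roughly 10 d after treatment in the greenhouse. Test chemicals, formulated with surfactant in a non-phytotoxic solvent, were applied to planted seeds as a preemergence soil spray or postemergence to one- to two-leaf plants 2 to 10 cm tall, in loam–sand soil.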

[2] = test system: pigweed (Amaranthus retroflexus); assay: Test A postemergence; details: Amaranthus retroflexus, post-emergence, 240 h, read-out: Pigweed plant response rating (0 to 100 scale); for pest or weed control at 125 g/ha: 125 g ai/ha, postemergence, visual injury vs untreated controls after approx. 10 d, 0 = no effect, 100 = complete control; for pest or weed control at 31 g/ha: Postemergence, 31 g ai/ha, 0 is no effect, 100 is complete control
In short: as §1

[3] = test system: ragweed (common ragweed, Ambrosia elatior); assay: Test A postemergence; details: Ambrosia artemisiifolia, post-emergence, 240 h, read-out: Ragweed plant response rating (0 to 100 scale); for pest or weed control at 125 g/ha: 125 g ai/ha, postemergence, visual injury vs untreated controls after approx. 10 d, 0 = no effect, 100 = complete control; for pest or weed control at 31 g/ha: Postemergence, 31 g ai/ha, 0 is no effect, 100 is complete control
In short: as §1

[4] = test system: Galium (catchweed bedstraw, Galium aparine); assay: Test A postemergence; details: Galium, post-emergence, 240 h, read-out: Galium plant response rating (0 to 100 scale); for pest or weed control at 125 g/ha: 125 g ai/ha, postemergence, visual injury vs untreated controls after approx. 10 d, 0 = no effect, 100 = complete control; for pest or weed control at 31 g/ha: Postemergence, 31 g ai/ha, 0 is no effect, 100 is complete control
In short: as §1

[5] = test system: blackgrass (Alopecurus myosuroides); assay: Test A postemergence; details: Alopecurus myosuroides, post-emergence, 240 h, read-out: Blackgrass plant response rating (0 to 100 scale); for pest or weed control at 125 g/ha: 125 g ai/ha, postemergence, visual injury vs untreated controls after approx. 10 d, 0 = no effect, 100 = complete control; for pest or weed control at 31 g/ha: Postemergence, 31 g ai/ha, 0 is no effect, 100 is complete control
In short: as §1

[6] = test system: corn (Zea mays); assay: Test A postemergence; details: Zea mays, post-emergence, 240 h, read-out: Corn plant response rating (0 to 100 scale); for plant injury at 125 g/ha: 125 g ai/ha, postemergence, visual injury vs untreated controls after approx. 10 d, 0 = no effect, 100 = complete control; for plant injury at 31 g/ha: Postemergence, 31 g ai/ha, 0 is no effect, 100 is complete control
In short: as §1

[7] = test system: wheat (Triticum aestivum); assay: Test A postemergence; details: Triticum aestivum, post-emergence, 240 h, read-out: Wheat plant response rating (0 to 100 scale); for plant injury at 125 g/ha: 125 g ai/ha, postemergence, visual injury vs untreated controls after approx. 10 d, 0 = no effect, 100 = complete control; for plant injury at 31 g/ha: Postemergence, 31 g ai/ha, 0 is no effect, 100 is complete control
In short: as §1

[8] = test system: Kochia (Kochia scoparia); assay: Test A postemergence; details: Bassia scoparia, post-emergence, 240 h, read-out: Kochia plant response rating (0 to 100 scale); for pest or weed control at 125 g/ha: 125 g ai/ha, postemergence, visual injury vs untreated controls after approx. 10 d, 0 = no effect, 100 = complete control; for pest or weed control at 31 g/ha: Postemergence, 31 g ai/ha, 0 is no effect, 100 is complete control
In short: as §1

[9] = test system: ryegrass, Italian (Italian ryegrass, Lolium multiflorum); assay: Test A postemergence; details: Lolium multiflorum, post-emergence, 240 h, read-out: Ryegrass, Italian plant response rating (0 to 100 scale); for pest or weed control at 125 g/ha: 125 g ai/ha, postemergence, visual injury vs untreated controls after approx. 10 d, 0 = no effect, 100 = complete control; for pest or weed control at 31 g/ha: Postemergence, 31 g ai/ha, 0 is no effect, 100 is complete control
In short: as §1

[10] = test system: giant foxtail (Setaria faberii); assay: Test A postemergence; details: Setaria faberi, post-emergence, 240 h, read-out: Foxtail, Giant plant response rating (0 to 100 scale); for pest or weed control at 125 g/ha: 125 g ai/ha, postemergence, visual injury vs untreated controls after approx. 10 d, 0 = no effect, 100 = complete control; for pest or weed control at 31 g/ha: Postemergence, 31 g ai/ha, 0 is no effect, 100 is complete control
In short: as §1

[11] = test system: barnyardgrass (Echinochloa crus-galli); assay: Test A preemergence; details: Echinochloa crus-galli, pre-emergence, 240 h, 0 to 100 scale where 0 is no effect and 100 is complete control, read-out: Barnyardgrass plant response rating; for pest or weed control at 31 g/ha: 31 g ai/ha, Preemergence; for pest or weed control at 125 g/ha: 125 g ai/ha, preemergence, visual injury rating, approximately 10 d
In short: as §1

[12] = test system: pigweed (Amaranthus retroflexus); assay: Test A preemergence; details: Amaranthus retroflexus, pre-emergence, 240 h, 0 to 100 scale where 0 is no effect and 100 is complete control, read-out: Pigweed plant response rating; for pest or weed control at 31 g/ha: 31 g ai/ha, Preemergence; for pest or weed control at 125 g/ha: 125 g ai/ha, preemergence, visual injury rating, approximately 10 d
[13] = test system: ragweed (common ragweed, Ambrosia elatior); assay: Test A preemergence; details: Ambrosia artemisiifolia, pre-emergence, 240 h, 0 to 100 scale where 0 is no effect and 100 is complete control, read-out: Ragweed plant response rating; for pest or weed control at 31 g/ha: 31 g ai/ha, Preemergence; for pest or weed control at 125 g/ha: 125 g ai/ha, preemergence, visual injury rating, approximately 10 d
In short: as §1

[14] = test system: Kochia (Kochia scoparia); assay: Test A preemergence; details: Bassia scoparia, pre-emergence, 240 h, 0 to 100 scale where 0 is no effect and 100 is complete control, read-out: Kochia plant response rating; for pest or weed control at 31 g/ha: 31 g ai/ha, Preemergence; for pest or weed control at 125 g/ha: 125 g ai/ha, preemergence, visual injury rating, approximately 10 d
In short: as §1

[15] = test system: ryegrass, Italian (Italian ryegrass, Lolium multiflorum); assay: Test A preemergence; details: Lolium multiflorum, pre-emergence, 240 h, 0 to 100 scale where 0 is no effect and 100 is complete control, read-out: Ryegrass, Italian plant response rating; for pest or weed control at 31 g/ha: 31 g ai/ha, Preemergence; for pest or weed control at 125 g/ha: 125 g ai/ha, preemergence, visual injury rating, approximately 10 d
In short: as §1

[16] = test system: giant foxtail (Setaria faberii); assay: Test A preemergence; details: Setaria faberi, pre-emergence, 240 h, 0 to 100 scale where 0 is no effect and 100 is complete control, read-out: Foxtail, Giant plant response rating; for pest or weed control at 31 g/ha: 31 g ai/ha, Preemergence; for pest or weed control at 125 g/ha: 125 g ai/ha, preemergence, visual injury rating, approximately 10 d
In short: as §1

[17] = test system: barnyardgrass (Echinochloa crus-galli); assay: Test B flooded paddy test; details: Echinochloa crus-galli, 250 g ai/ha, Flood; 0 to 100 scale where 0 is no effect and 100 is complete control; read-out: Barnyardgrass plant response rating
In short: (§2)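 Visual ratings (0 none to 100 complete control) are relative to untreated plants, taken 13–15 d after treatment in a greenhouse. Test material went straight into floodwater standing 3 cm above the soil, kept constant, on plants at the 2-leaf stage.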

[18] = test system: rice (Oryra sativa); assay: Test B flooded paddy test; details: Oryza sativa, 250 g ai/ha, Flood; 0 to 100 scale where 0 is no effect and 100 is complete control; read-out: Rice plant response rating
In short: as §2

[19] = test system: ducksalad (Heteranthera limosa); assay: Test B flooded paddy test; details: Heteranthera limosa, 250 g ai/ha, Flood; 0 to 100 scale where 0 is no effect and 100 is complete control; read-out: Ducksalad plant response rating
In short: as §2

[20] = test system: sedge, umbrella (small-flower umbrella sedge, Cyperus difformis); assay: Test B flooded paddy test; details: Cyperus difformis, 250 g ai/ha, Flood; 0 to 100 scale where 0 is no effect and 100 is complete control; read-out: Sedge, Umbrella plant response rating
In short: as §2

Cc1ccc([C@H]2CN(C)C(=O)[C@@H]2C(=O)Nc2cccc(F)c2C#N)cc1 [Compound 1189]
pest or weed control at 125 g/ha [1]: 100%
pest or weed control at 31 g/ha [1]: 70%
pest or weed control at 125 g/ha [2]: 0%
pest or weed control at 31 g/ha [2]: 0%
pest or weed control at 125 g/ha [3]: 40%
pest or weed control at 31 g/ha [3]: 0%
pest or weed control at 125 g/ha [4]: 50%
pest or weed control at 31 g/ha [4]: 30%
pest or weed control at 125 g/ha [5]: 40%
pest or weed control at 31 g/ha [5]: 20%
plant injury at 125 g/ha [6]: 20%
plant injury at 31 g/ha [6]: 0%
plant injury at 125 g/ha [7]: 20%
plant injury at 31 g/ha [7]: 0%
pest or weed control at 125 g/ha [8]: 20%
pest or weed control at 31 g/ha [8]: 0%
pest or weed control at 125 g/ha [9]: 20%
pest or weed control at 31 g/ha [9]: 0%
pest or weed control at 125 g/ha [10]: 80%
pest or weed control at 31 g/ha [10]: 70%
pest or weed control at 31 g/ha [11]: 90%
pest or weed control at 125 g/ha [11]: 100%
pest or weed control at 31 g/ha [12]: 0%
pest or weed control at 125 g/ha [12]: 40%
pest or weed control at 31 g/ha [13]: 0%
pest or weed control at 125 g/ha [13]: 50%
pest or weed control at 31 g/ha [14]: 40%
pest or weed control at 125 g/ha [14]: 70%
pest or weed control at 31 g/ha [15]: 20%
pest or weed control at 125 g/ha [15]: 60%
pest or weed control at 31 g/ha [16]: 90%
pest or weed control at 125 g/ha [16]: 100%
pest or weed control at 250 g/ha [17]: 75%
pest or weed control at 250 g/ha [18]: 15%
pest or weed control at 250 g/ha [19]: 100%
pest or weed control at 250 g/ha [20]: 0%

N#Cc1ccc([C@H]2CNC(=O)[C@@H]2C(=O)Nc2ccccc2F)cc1F [Compound 1191]
pest or weed control at 125 g/ha [1]: 0%
pest or weed control at 31 g/ha [1]: 0%
pest or weed control at 125 g/ha [2]: 0%
pest or weed control at 31 g/ha [2]: 0%
pest or weed control at 125 g/ha [3]: 0%
pest or weed control at 31 g/ha [3]: 0%
pest or weed control at 125 g/ha [4]: 0%
pest or weed control at 31 g/ha [4]: 0%
pest or weed control at 125 g/ha [5]: 0%
pest or weed control at 31 g/ha [5]: 0%
plant injury at 125 g/ha [6]: 0%
plant injury at 31 g/ha [6]: 0%
plant injury at 125 g/ha [7]: 0%
plant injury at 31 g/ha [7]: 0%
pest or weed control at 125 g/ha [8]: 0%
pest or weed control at 31 g/ha [8]: 0%
pest or weed control at 125 g/ha [9]: 0%
pest or weed control at 31 g/ha [9]: 0%
pest or weed control at 125 g/ha [10]: 0%
pest or weed control at 31 g/ha [10]: 0%
pest or weed control at 31 g/ha [11]: 0%
pest or weed control at 125 g/ha [11]: 0%
pest or weed control at 31 g/ha [12]: 0%
pest or weed control at 125 g/ha [12]: 0%
pest or weed control at 31 g/ha [13]: 0%
pest or weed control at 125 g/ha [13]: 0%
pest or weed control at 31 g/ha [14]: 0%
pest or weed control at 125 g/ha [14]: 0%
pest or weed control at 31 g/ha [15]: 0%
pest or weed control at 125 g/ha [15]: 0%
pest or weed control at 31 g/ha [16]: 0%
pest or weed control at 125 g/ha [16]: 0%
pest or weed control at 250 g/ha [17]: 0%
pest or weed control at 250 g/ha [18]: 10%
pest or weed control at 250 g/ha [19]: 90%
pest or weed control at 250 g/ha [20]: 0%
